Data on two compounds can be found in patent US11420962B2, “Indene derivatives useful in treating pain and inflammation” (TARO PHARMACEUTICALS INC., priority 2018, dated 2022).

The test system of assay [1] is Rats (male, Sprague-Dawley). Kind of assay: Rat carrageenan-induced hyperalgesia and paw edema. The assay is classed as in vivo. The following applies: 10 mg/kg, given 1 h prior to carrageenan challenge. Here is the method:
Representative compounds of the invention (i.e., test compounds) were administered PO, QD for 3 days prior to carrageenan injection, once at 1 h prior to carrageen, or at 5 min or 1 h post-challenge to rats (male, Sprague-Dawley). Rats received either an intraplantar injection of saline (sham) or carrageen (0.1 mL of a 2% solution [w/v]) in the right hind paw. Mechanical hyperalgesia (using an analgesymeter) and paw volume (using a digital plethysmometer) were measured at baseline (0 hr), 2, 4 and 6 h post carrageenan injection for all the animals. Celecoxib, given 1 h prior to carrageen challenge, was used as a reference standard.

The subject of a further assay is rats (male, Wistar). In words: Complete Freund's Adjuvant (CFA) model of inflammatory pain in rats. It is filed as in vivo. The conditions noted are these: 30 mg/kg dose. Here is the method:
Representative compounds of the invention (i.e., test compounds) were tested in this model of inflammatory pain. The rats (male, Wistar) were acclimatized to the instruments (plantar test surface and dynamic plantar aesthesiometer) on two consecutive days prior to the initiation of the study. On Day 0, basal paw withdrawal latency and paw withdrawal threshold were taken and animals were randomized to different groups. Complete Freund's Adjuvant (CFA) at 1 mg/mL (0.1 mL) was injected into the plantar surface of right hind paw. Test compounds (3 or 30 mg/kg) were administered PO, twice (Day 0 and Day 1) or once, on Day 1 (24 h after CFA). Thermal hyperalgesia and mechanical allodynia were assessed at 0 (baseline), 1, 3 and 6 h after administration of the test compound on Day 1. Diclofenac was used as a reference compound, given once on Day 1.

`Cc1ccc(-c2cc(C(F)(F)F)nn2-c2ccc(S(N)(=O)=O)cc2)cc1` [celecoxib, reference compound]: the “increase in the paw withdrawal threshold” value in assay [1] came out at 59%. Consider `O=C(O)Cc1ccccc1Nc1c(Cl)cccc1Cl` [diclofenac, reference compound], for which the “increase in the paw withdrawal threshold” value with rats (male, Wistar) is 62%.
